According to PMC10447463, “Data-mining unveils structure–property–activity correlation of viral infectivity enhancing self-assembling peptides” (Nature Communications, 2023):
Where two headings read alike, the source gives them in different places.

Columns and labels:
[1] = test system: HIV-1 infection of TZM-bl cells; experiment: HIV-1 infectivity enhancement assay, β-galactosidase luminescence; assay type: cell-based; conditions: for Rel-EFC: infection relative to EF-C (QCKIKQIINMWQ = 1); for Log10 Infection Rel EFC: log10 of infection relative to EF-C; for Log Infectivity: Fig. S7 panel A (plotted against β-sheet content), Log10 infection relative to EF-C, asymmetric std dev errors; for Log10 Infection Rel EF-C: HIV-1 infection of TZM-bl cells; for Abs. Inf.: β-galactosidase luminescence; for Log10 of Rel to EFC (Feb2021): Log10 of infection relative to EF-C
[2] = assay type: physicochemical; conditions: for ThT Cat. / ThT-Fluorescence (categorical): ThT-active if fluorescence at least twice the control
How it was run: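 Fibrils (1 mg/mL solution) were mixed with 50 µM ThT in PBS for 15 min at RT, and fluorescence was read at λex 440/λem 488 nm against a PBS blank, as a triplicate mean ± SD. Zeta potential came from electrophoretic mobility (Smoluchowski) after 1 d aggregation at 1 mg/mL in PBS pH 7.4, diluted into 1 mM KCl.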

[3] = Log10 of infection rate relative to EF-C, Figure 3A source data
[4] = infection rate relative to EF-C, log10, data of Figure 2D
[5] = infection rate relative to EF-C, log10, source data of Figure 2C
[6] = ThT fluorescence category, 1 if Rel. ThT >2

Substance	Rel-EFC ([1]; 1.3 µM peptide)	Log10 Infection Rel EFC ([1]; 1.3 µM peptide)	Log Infectivity ([1]; TZM-bl cells)	Log10 Infection Rel EF-C [1, 3]	Log10 Infection Rel EF-C [1, 4]	Log10 Infection Rel EF-C [1, 5]	Tht category (> 2 to blank = +) ([2]; Fig S10 panel D)	Tht category (> 2 to blank = +) ([2]; FigS12 panel A)	ThT Cat, ([2]; FigS12 panel B)	ThT Cat, ([2]; ThT category, 1 if Rel. ThT >2)	ThT Cat. [2, 6]	ThT Cat. / ThT-Fluorescence (categorical) [2]	Log10 of Rel to EFC (Feb2021) ([1]; all peptides of FigS16)	also measured
KAKAKAQA	0,01	-2,06	-2.06	-2.06	-2.06	-2.06	0 (ThT-inactive (N-Fold <2))	0 (ThT-inactive (N-Fold <2))	0 (ThT-inactive (N-Fold <2))	0 (ThT-inactive (N-Fold <2))	0 (ThT-inactive (N-Fold <2))	0 (ThT-inactive (N-Fold <2))	–	–
KFKFQFN	0,02	-1,74	-1.744	-1.74	-1.744	-1.744	0 (ThT-inactive (N-Fold <2))	0 (ThT-inactive (N-Fold <2))	0 (ThT-inactive (N-Fold <2))	0 (ThT-inactive (N-Fold <2))	–	0 (ThT-inactive (N-Fold <2))	–	Inf. rel. EF-C ([1]; HIV-1 infection relative to EF-C, Fig 23 plot, panels A and B, mean of 3 values): 0.01184; Inf. rel. EF-C ([1]; HIV-1 infection relative to EF-C, Fig 23 plot, single data point, replicate 2): 0.01096; Inf. rel. EF-C ([1]; HIV-1 infection relative to EF-C, Fig 23 plot, single data point, replicate 3): 0.005798; Abs. Inf. / RLU s-1 ([1]; absolute infection rate, peptide 1.3 µM on cells, virus preincubated 10 min with fibrils, read 3 days post infection, mean of triplicate): 270 RLU s-1; Abs. Inf. ([1]; absolute infection signal, HIV-1 on TZM-bl cells): 270; Log10 Inf. rel. to EF-C ([1]; log10 of HIV-1 infection of TZM-bl cells relative to EF-C (EF-C = 0)): -1.744; Inf. rel. EF-C ([1]; n-fold infection vs virus only, relative to that of EF-C, 1.3 µM peptide): 0.02; ThT Cat. ([2]; ThT category, 1 if Rel. ThT >2): 0 (ThT-inactive (N-Fold <2)); Rel. ThT ([2]; n-fold ThT fluorescence vs control (PBS, 10% DMSO), 4 µL 1 mg/mL fibrils + 20 µL 50 µM ThT, 15 min RT, ex 440 / em 488 nm, triplicate): 1.1
KIKIQIRGD	0,02	-1,68	-1.678	-1.68	-1.678	-1.678	1 (ThT. Cat is 1, if Rel. ThT >2)	1 (ThT. Cat is 1, if Rel. ThT >2)	1 (ThT. Cat is 1, if Rel. ThT >2)	1 (ThT. Cat is 1, if Rel. ThT >2)	1 (ThT. Cat is 1, if Rel. ThT >2)	1 (ThT. Cat is 1, if Rel. ThT >2)	–	–
KLKLQLL	0,01	-2,16	-2.156	-2.16	-2.156	-2.156	0 (ThT-inactive (N-Fold <2))	0 (ThT-inactive (N-Fold <2))	0 (ThT-inactive (N-Fold <2))	0 (ThT-inactive (N-Fold <2))	0 (ThT-inactive (N-Fold <2))	0 (ThT-inactive (N-Fold <2))	–	–
KIKIKIKIWWWW	0,59	-0,23	-0.2301	-0.23	-0.2301	-0.2301	1 (ThT. Cat is 1, if Rel. ThT >2)	–	–	1 (ThT. Cat is 1, if Rel. ThT >2)	1 (ThT. Cat is 1, if Rel. ThT >2)	1 (ThT. Cat is 1, if Rel. ThT >2)	-0.23	Log10 of Rel to EFC (Feb2021) ([1]; second listing, peptides with TEM 2cat 0): -0.23
KFKQFFINMWQ	0,92	-0,04	-0.03603	-0.04	-0.03603	-0.03603	0 (ThT-inactive (N-Fold <2))	–	–	0 (ThT-inactive (N-Fold <2))	–	0 (ThT-inactive (N-Fold <2))	-0.04	Abs. Inf. ([1]; absolute HIV-1 infection signal, TZM-bl cells): 14953.33333; ThT Cat. ([2]; ThT category, 1 if Rel. ThT >2): 0 (ThT-inactive (N-Fold <2))
MKIKIQINM	0,27	-0,56	-0.5635	-0.56	-0.5635	-0.5635	0 (ThT-inactive (N-Fold <2))	–	–	0 (ThT-inactive (N-Fold <2))	0 (ThT-inactive (N-Fold <2))	0 (ThT-inactive (N-Fold <2))	-0.56	–
KVKVQVV	0,01	-2,04	-2.04	-2.04	-2.04	-2.04	0 (ThT-inactive (N-Fold <2))	0 (ThT-inactive (N-Fold <2))	0 (ThT-inactive (N-Fold <2))	0 (ThT-inactive (N-Fold <2))	0 (ThT-inactive (N-Fold <2))	0 (ThT-inactive (N-Fold <2))	–	–
ILKNLSRSRKIKIQIC	0,34	-0,47	-0.4741	-0.47	-0.4741	-0.4741	1 (ThT. Cat is 1, if Rel. ThT >2)	–	–	1 (ThT. Cat is 1, if Rel. ThT >2)	1 (ThT. Cat is 1, if Rel. ThT >2)	1 (ThT. Cat is 1, if Rel. ThT >2)	-0.47	–
KIEIQINM	0,03	-1,46	-1.458	-1.46	-1.458	-1.458	0 (ThT-inactive (N-Fold <2))	0 (ThT-inactive (N-Fold <2))	0 (ThT-inactive (N-Fold <2))	0 (ThT-inactive (N-Fold <2))	0 (ThT-inactive (N-Fold <2))	0 (ThT-inactive (N-Fold <2))	–	–
